This note sets out measurements from patent US12280047B2, “Treatment of aneurysms” (Georgia State Research Foundation, Inc., priority 2017, dated 2025).

Assay [1] has as its system ApoE−/− mice. Nature of the assay: OMBA, NBA and 1MT treating AngII-induced abdominal aortic aneurysm (Example 15). Format: in vivo. The following applies: for Incidence of AAA: ApoE−/− mice, AngII 1,000 ng/kg/min four weeks, then drug in drinking water 6 weeks, mice with AAA/group size. The protocol: To test the effect of other Kynurenine pathway inhibitors on treating AngII-induced abdominal aortic aneurysm, male ApoE^−/− mice at age 8 weeks were infused with AngII (1,000 ng/kg/min) or saline (0.9% sodium chloride) by Alzet osmotic pumps for four weeks. Four weeks later, Ang-II treated mice were divided into […] groups of 18 and administered o-methoxybenzo ylalanine (OMB), (m-nitrobenzoyl)alanine (NBA), 1-methyltryptophan (1MT) or vehicle control (water) by drinking water for 6 weeks.
To quantify AAA incidence and size, the maximum width of abdominal aorta was measured with Image Pro Plus software (Media Cybernetics). Aneurysm incidence was quantified based on a definition of aneurysm as an external width of the suprarenal aorta that was increased by 50% or greater compared with aortas from saline-infused mice. The average diameter of the normal suprarenal aorta in control mice is 0.8 mm. Therefore, a threshold of 1.22 mm as evidence of aneurysm formation was set. […] Incidence of AAA among the various groups of mice is outlined in FIG. 31A and Table 5 below.

The subject of assay [2] is MMP2. In words: MMP2 expression and activity in aortas of 3-HAA-injected mice. The format is in vivo. The note with it: 3-HAA 200 mg/kg/d i.p., 6 weeks; ApoE−/− and ApoE−/−/IDO−/− mice; vs vehicle-treated mice. On the procedure: ApoE^−/− and ApoE^−/−/IDO^−/− mice at age 8 weeks on a chow diet were intraperitoneally injected with 3-HAA (200 mg/kg. d) or vehicle for 6 weeks. 3-HAA was dissolved in […] and further diluted in Captisol (Captisol Technology).
Circ Res. (2014) 114:480-92.
The evaluation of MMP activities in cells and aortas was performed as described previously in: Satoh K, et al., Cyclophilin A enhances vascular oxidative stress and the development of angiotensin II-induced aortic aneurysms. Nat Med. (2009) 15:649-56; Becerra A, et al., Increased activity of indoleamine 2,3-dioxygenase in serum from acutely infected dengue patients linked to gamma interferon antiviral function. J Gen Virol. (2009) 90:810-7; Holmes E W. Determination of serum kynurenine and hepatic tryptophan dioxygenase activity by high-performance liquid chromatography. Anal Biochem. (1988) 172:518-25; Forrest C M, et al., Kynurenine pathway metabolism in patients with osteoporosis after 2 years of drug treatment. Clin Exp Pharmacol Physiol. […]
To ascertain the effect of 3-HAA in MMP2 expression in vivo, ApoE^−/− and ApoE^−/−/IDO^−/− mice were intra-peritoneally treated with vehicle or 3-HAA (200 mg/kg/d) for 6 weeks. Corresponding increases in 3-HAA were detected in the plasma (FIG. 6F) and aortas (FIGS. 6D and 6E) of 3-HAA-injected ApoE^−/− and ApoE^−/−/IDO^−/− mice. […]

The test system of assay [3] is MMP2. In words: MMP2 in isolated mouse aortas incubated with 3-HAA ex vivo. The note with it: 400 μM 3-HAA, 48 hours, aortas from ApoE−/− and ApoE−/−/IDO−/− mice.
A further assay has as its system HASMCs. In words: MMP2 expression and activity in HASMCs incubated with metabolites of Trp degradation. The format is cell-based, human. An excerpt:
J Immunol. […] Neuropharmacology. […] Proc Natl Acad Sci USA.

For assay [4], the system named is ApoE−/− mice. In words: Serum kynurenine pathway metabolites in AngII mice treated with OMBA, NBA, 1MT (Example 15). Format: in vivo. The protocol:
The culture medium was centrifuged to pellet the cells to avoid contamination from the cells, and the supernatant was filtered ([…]) before use. Sample preparation for plasma was operated as described previously (Becerra A, et al., Increased activity of indoleamine 2,3-dioxygenase in serum from acutely infected dengue patients linked to gamma interferon antiviral function. J Gen Virol. (2009) 90:810-7; Holmes E W. Determination of serum kynurenine and hepatic tryptophan dioxygenase activity by high-performance liquid chromatography. Anal Biochem. (1988) 172:518-25). 200 μL of plasma was mixed by vortex in a small polyethylene conical tube with 1/10 volume of ice cold 2.4 mol/L perchloric acid. The cloudy suspension was chilled on ice for 15 min and then centrifuged at 10,000 g for 2 min. The clear protein-free supernatant was analyzed directly.
Circ Res. (2014) 114:480-92. Kyn content was estimated along with standards ranging from 0.5-20 μM L-kynurenine (Sigma, K8625), and Trp level was assessed along standards ranging from 1-25 μM DL-Tryptophan (Sigma, 162698), using a GraceVydac C18 column (250×4.6 mm, 5.0 The mobile phase was 20 mM sodium acetate at pH=4.5. The flow rate was 1 ml/min. The column effluent was monitored at 360 nm (Kyn) and 280 nm (Trp) by a UV detector.
3-HAA was measured by HPLC as described previously in Forrest C M, et al., Kynurenine pathway metabolism in patients with osteoporosis after 2 years of drug treatment. Clin Exp Pharmacol Physiol. (2006) 33:1078-87. 3-HAA content was estimated along with standards ranging from 1-200 nM 3-Hydroxyanthranilic acid (Santa Cruz, sc-216460), using a GraceVydac C18 column (250×4.6 mm, 5.0 The mobile phase consisted of 25 mM sodium acetate (pH=5.5) and methanol (90:10 v/v) was pumped at a flow rate of 1 ml/min. Fluorescent detection at excitation 320 nm and emission 420 was used. […]

Setting [5] is: concentration- and time-dependent manner.

With `Cn1cc(C[C@H](N)C(=O)O)c2ccccc21` [1MT, 1-methyltryptophan], in the assay with ApoE−/− mice [1], the “Incidence of AAA” value is on record as 9/18.
Consider `Nc1c(O)cccc1C(=O)O` [3-HAA, 3-Hydroxyanthranilic acid], for which the “MMP2 expression and activity in aortas” value in the assay with MMP2 [2] is listed as “remarkably increased”. Also, the “MMP2 expression and activity in isolated aortas” value in the assay with MMP2 [3] is reported as “significantly upregulated”. Also, in the assay with HASMCs (48 hours, Kyn 100 μM, 3-HK 100 μM, KA 75 μM, AA 100 μM, 3-HAA 200 μM, XA 200 μM, QA 1 mM, immunoblot and zymography), the “MMP2 expression and activity” value is recorded as “dramatic increase”. Moreover, in the assay with HASMCs (setting [5]), the “expression and activity of MMP2” value is reported as “induced”; the “phosphorylation of Elk1 at Ser383” value was “induced”.
For the compound `COc1ccccc1C(=O)NC(C)C(=O)O` (stereo not drawn) [OMBA, o-Methoxybenzoylalanine], in the assay on ApoE−/− mice [1] (AngII-administered mice), the “aortic weight to body weight ratio” value is recorded as “lower” and the “maximal abdominal aortic diameter” value is given as “lower”. Also, the “Incidence of AAA” value with ApoE−/− mice [1] is listed as 5/18. Also, the “Serum levels of tryptophan” value with ApoE−/− mice [4] (AngII-administered mice, compared to control mice) is “decreased”. In the assay with ApoE−/− mice [4] (compared to AngII alone), the “Levels of anthranilic acid (serum)” value is given as “elevated” and the “Levels of kynurenic acid (serum)” value was “elevated”.
